Data: patent publication EP4722201A1, “3-PHENYLISOXAZOLINE-5-CARBOXAMIDE COMPOUND, AND PREPARATION METHOD THEREFOR, HERBICIDAL COMPOSITION THEREOF AND USE THEREOF” (Jiangsu Flag Chemical Industry Co., Ltd, priority 2023, dated 2024)

Assays:
Assay in all cases: Indoor herbicide activity determination, Seed Treatment; pre-emergence (soil spray)
Type in all cases: in vivo
Aegilops tauschii = settings: read-out: Herbicidal activities (inhibition rate) Aegilops tauschii; for inhibition at 120 g/ha: 120 g a.i./ha; for inhibition at 60 g/ha: 60 g a.i./ha
Description: (§1) The testing method for herbicide activity of the compound of the present invention was as follows:
(§2) Seed Treatment; pre-emergence: quantitative seeds of gramineous weeds (Echinochloa crusgalli, Eleusine indica, Digitaria sanguinalis, Alopecurus japonicus, Beckmannia syzigachne, Leptochloa chinensis, Polypogon fugax, Alopecurus aequalis, Lolium multiflorum, Poa annua, Aegilops tauschii, Avena fatua, Alopecurus myosuroides, Alopecurus japonicus and Alopecurus aequalis), broad-leaved weeds (Eclipta prostrata, Amaranthus retroflexus, Rorippa indica, Malachium aquaticum, Veronica polita, Conyza canadensis, Sesbania cannabina, Sagittariatrifolia and Schoenoplectiella juncoides), and Cyperus iria were sown in plastic pots having a diameter of 7 cm and holes at the bottom and filled with nutrient soil (sandy soil, pH 6.1, organic matter 1%) respectively, the seeds were covered with an appropriate amount of soil after being sown, then the soil was wetted with water from the bottom, the seeds were cultured in a constant-temperature illuminated culture room for 24 h, and the soil was sprayed by using a 3WP-2000 traveling spray tower produced by the Nanjing Institute of Agricultural Mechanization of the Ministry of Agriculture, where a rotational speed of a main shaft was 96 mm/r, a spray height was 300 mm, an effective spraying range of a nozzle was 350 mm, a spray area was 0.35 m^2, and a flow rate at the nozzle was 390 mL/min.
(§3) Post-emergence: an appropriate quantity of seeds of gramineous weeds (Echinochloa crusgalli, Eleusine indica, Digitaria sanguinalis, Alopecurus japonicus, Beckmannia syzigachne, Leptochloa chinensis, Polypogon fugax, Alopecurus aequalis, Lolium multiflorum, Poa annua, Aegilops tauschii, Avena fatua, Alopecurus myosuroides, Alopecurus japonicus and Alopecurus aequalis), broad-leaved weeds (Eclipta prostrata, Amaranthus retroflexus, Rorippa indica, Malachium aquaticum, Veronica polita, Conyza canadensis, Sesbania cannabina, Sagittariatrifolia and Schoenoplectiella juncoides), and Cyperus iria were sown in plastic pots having a diameter of 7 cm and holes at the bottom and filled with nutrient soil (sandy soil, pH 6.1, organic matter 1%) respectively, the seeds were covered with an appropriate amount of soil after being sown, then the soil was wetted with water from the bottom, the seeds were cultured in a constant-temperature illuminated culture room until a 2-4 leaf stage, and stems and leaves underwent spray treatment. After the treatment, the test materials were placed in a laboratory and cultured in the constant-temperature illuminated culture room after the liquid was naturally dry in the shade, and results were determined 21 days later. Inhibition rate of fresh weight % = (1−(fresh weight of treated plants)/(fresh weight of control plants)) × 100% [formula]

Cyperus iria = settings: read-out: Herbicidal activities (inhibition rate) Cyperus iria; for inhibition at 120 g/ha: 120 g a.i./ha; for inhibition at 60 g/ha: 60 g a.i./ha
Description: as §1, §2, §3

Eleusine indica = system: Eleusine indica
Description: as §1, §2, §3

Lolium multiflorum = system: Lolium multiflorum
Description: as §1, §2, §3

Alopecurus myosuroides = system: Alopecurus myosuroides
Description: as §1, §2, §3

Alopecurus japonicus = system: Alopecurus japonicus
Description: as §1, §2, §3

Leptochloa chinensis = system: Leptochloa chinensis
Description: as §1, §2, §3

Eclipta prostrata = settings: read-out: Herbicidal activities (inhibition rate) Eclipta prostrata; for inhibition at 120 g/ha: 120 g a.i./ha; for inhibition at 60 g/ha: 60 g a.i./ha
Description: as §1, §2, §3

Row | SMILES | inhibition at 120 g/ha (Aegilops tauschii) [%] | inhibition at 120 g/ha (Cyperus iria) [%] | inhibition at 60 g/ha (Aegilops tauschii) [%] | inhibition at 60 g/ha (Cyperus iria) [%] | Herbicidal activities, Eleusine indica (inhibition rate class) (Eleusine indica; Dosage 120 g a.i./ha) | Herbicidal activities, Lolium multiflorum (inhibition rate class) (Lolium multiflorum; Dosage 120 g a.i./ha) | Herbicidal activities, Alopecurus myosuroides (inhibition rate class) (Alopecurus myosuroides; Dosage 120 g a.i./ha) | Herbicidal activities, Alopecurus japonicus (inhibition rate class) (Alopecurus japonicus; Dosage 120 g a.i./ha) | Herbicidal activities, Leptochloa chinensis (inhibition rate class) (Leptochloa chinensis; Dosage 120 g a.i./ha) | inhibition at 60 g/ha (Eclipta prostrata) [%] | other results
1 | C=CC1(C(=O)N[C@H]2C[C@@H](C(=O)OCC[S+](C)[O-])C2)CC(c2cc(F)cc(F)c2)=NO1 (stereo partly shown) [I-9] | 80 to 100 | 80 to 100 |  |  |  |  |  |  |  |  | Herbicidal activities, Eleusine indica (inhibition rate class) (Eleusine indica; Dosage 240 g a.i./ha): A (A indicates that the inhibition rate was greater than or equal to 80% to 100%); Herbicidal activities, Lolium multiflorum (inhibition rate class) (Lolium multiflorum; Dosage 240 g a.i./ha): A (A indicates that the inhibition rate was greater than or equal to 80% to 100%); Herbicidal activities, Alopecurus myosuroides (inhibition rate class) (Alopecurus myosuroides; Dosage 240 g a.i./ha): A (A indicates that the inhibition rate was greater than or equal to 80% to 100%); Herbicidal activities, Alopecurus japonicus (inhibition rate class) (Alopecurus japonicus; Dosage 240 g a.i./ha): A (A indicates that the inhibition rate was greater than or equal to 80% to 100%); Herbicidal activities, Leptochloa chinensis (inhibition rate class) (Leptochloa chinensis; Dosage 240 g a.i./ha): A (A indicates that the inhibition rate was greater than or equal to 80% to 100%); inhibition at 120 g/ha (Eclipta prostrata): 60 to 80%
2 | C=CC1(C(=O)N[C@H]2C[C@@H](C(=O)OCCS(C)(=O)=O)C2)CC(c2cc(F)cc(F)c2)=NO1 (stereo partly shown) [I-10] | 80 to 100 | 80 to 100 |  |  |  |  |  |  |  |  | Herbicidal activities, Eleusine indica (inhibition rate class) (Eleusine indica; Dosage 240 g a.i./ha): A (A indicates that the inhibition rate was greater than or equal to 80% to 100%); Herbicidal activities, Lolium multiflorum (inhibition rate class) (Lolium multiflorum; Dosage 240 g a.i./ha): A (A indicates that the inhibition rate was greater than or equal to 80% to 100%); Herbicidal activities, Alopecurus myosuroides (inhibition rate class) (Alopecurus myosuroides; Dosage 240 g a.i./ha): A (A indicates that the inhibition rate was greater than or equal to 80% to 100%); Herbicidal activities, Alopecurus japonicus (inhibition rate class) (Alopecurus japonicus; Dosage 240 g a.i./ha): A (A indicates that the inhibition rate was greater than or equal to 80% to 100%); Herbicidal activities, Leptochloa chinensis (inhibition rate class) (Leptochloa chinensis; Dosage 240 g a.i./ha): A (A indicates that the inhibition rate was greater than or equal to 80% to 100%); inhibition at 120 g/ha (Eclipta prostrata): 60 to 80%
3 | C=C[C@]1(C(=O)N[C@H]2C[C@@H](C(=O)NOC)C2)CC(c2cc(F)cc(F)c2)=NO1 [I-23] |  |  | 80 to 100 | 80 to 100 | A (A indicates that the inhibition rate was greater than or equal to 80% to 100%) | A (A indicates that the inhibition rate was greater than or equal to 80% to 100%) | A (A indicates that the inhibition rate was greater than or equal to 80% to 100%) | A (A indicates that the inhibition rate was greater than or equal to 80% to 100%) | A (A indicates that the inhibition rate was greater than or equal to 80% to 100%) | 60 to 80 | 
4 | C=C[C@]1(C(=O)N[C@H]2C[C@@H](C(=O)OCCCCC)C2)CC(c2cc(F)cc(Cl)c2)=NO1 [I-31] |  |  | 60 to 80 | 60 to 80 | A (A indicates that the inhibition rate was greater than or equal to 80% to 100%) |  | A (A indicates that the inhibition rate was greater than or equal to 80% to 100%) |  | A (A indicates that the inhibition rate was greater than or equal to 80% to 100%) | 80 to 100 | 
5 | C=C[C@]1(C(=O)N[C@H]2C[C@@H](C(=O)OCC=CC)C2)CC(c2cc(F)cc(Cl)c2)=NO1 [I-32] |  |  | 60 to 80 | 60 to 80 | A (A indicates that the inhibition rate was greater than or equal to 80% to 100%) | B (B indicates that the inhibition rate was greater than or equal to 60% to less than 80%) | A (A indicates that the inhibition rate was greater than or equal to 80% to 100%) | B (B indicates that the inhibition rate was greater than or equal to 60% to less than 80%) | A (A indicates that the inhibition rate was greater than or equal to 80% to 100%) | 80 to 100 | 
6 | C=C[C@]1(C(=O)N[C@H]2C[C@@H](C(=O)O[C@H](C)COC)C2)CC(c2cc(F)cc(Cl)c2)=NO1 [I-33] |  |  | 60 to 80 | 60 to 80 | A (A indicates that the inhibition rate was greater than or equal to 80% to 100%) | A (A indicates that the inhibition rate was greater than or equal to 80% to 100%) | A (A indicates that the inhibition rate was greater than or equal to 80% to 100%) | A (A indicates that the inhibition rate was greater than or equal to 80% to 100%) | A (A indicates that the inhibition rate was greater than or equal to 80% to 100%) | 80 to 100 | 
7 | C=C[C@]1(C(=O)N[C@H]2C[C@@H](C(=O)OCC(F)(F)C(F)F)C2)CC(c2cc(F)cc(OC(F)(F)F)c2)=NO1 [I-64] |  |  | 60 to 80 |  | B (B indicates that the inhibition rate was greater than or equal to 60% to less than 80%) | A (A indicates that the inhibition rate was greater than or equal to 80% to 100%) | A (A indicates that the inhibition rate was greater than or equal to 80% to 100%) | A (A indicates that the inhibition rate was greater than or equal to 80% to 100%) | A (A indicates that the inhibition rate was greater than or equal to 80% to 100%) | 80 to 100 | 
8 | C=C[C@]1(C(=O)N[C@H]2C[C@@H](C(=O)OCCOCC)C2)CC(c2cc(F)cc(OC(F)(F)F)c2)=NO1 [I-65] |  |  | 80 to 100 |  | B (B indicates that the inhibition rate was greater than or equal to 60% to less than 80%) | A (A indicates that the inhibition rate was greater than or equal to 80% to 100%) | A (A indicates that the inhibition rate was greater than or equal to 80% to 100%) | A (A indicates that the inhibition rate was greater than or equal to 80% to 100%) | A (A indicates that the inhibition rate was greater than or equal to 80% to 100%) | 60 to 80 | 
9 | CSCCOC(=O)[C@@H]1C=C[C@H](NC(=O)C2(C)CC(c3cc(F)cc(C(F)(F)F)c3)=NO2)C1 (stereo partly shown) [I-497] | 80 to 100 | 80 to 100 |  |  |  |  |  |  |  |  | Herbicidal activity (inhibition rate class), Eleusine indica (Eleusine indica; Dosage 240 g a.i./ha): A (A indicates that the inhibition rate was greater than or equal to 80% to 100%); Herbicidal activity (inhibition rate class), Lolium multiflorum (Lolium multiflorum; Dosage 240 g a.i./ha): A (A indicates that the inhibition rate was greater than or equal to 80% to 100%); Herbicidal activity (inhibition rate class), Alopecurus myosuroides (Alopecurus myosuroides; Dosage 240 g a.i./ha): A (A indicates that the inhibition rate was greater than or equal to 80% to 100%); Herbicidal activity (inhibition rate class), Alopecurus japonicus (Alopecurus japonicus; Dosage 240 g a.i./ha): A (A indicates that the inhibition rate was greater than or equal to 80% to 100%); Herbicidal activity (inhibition rate class), Leptochloa chinensis (Leptochloa chinensis; Dosage 240 g a.i./ha): A (A indicates that the inhibition rate was greater than or equal to 80% to 100%)
